Results filed as inconclusive are left out. Calls of active or inactive are those of the source.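 Rule for the calls: active = compounds whose fitted half-maximal potency is at most ten times their top valid tested dose, reducing viability; inconclusive = flat curve with 30 to 70% viability loss, or poor fit; inactive = the rest.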
System: not listed separately
Assay: cytotoxicity toward BJeHLT engineered cells – cell-based, plate reader, dry powder, set 4, counter-screen for Ras selective lethality project, dose response (AID 540314)
Settings: BJeHLT fibroblasts viability, Alamar Blue fluorescence, 48 h; at 48 µM (top of the series)

With `Cc1onc(C(=O)N2CCN(Cc3ccccc3)CC2)c1[N+](=O)[O-]` the activity change, negative = less viable was 8.05% (inactive).

System: BJeHLT fibroblasts viability, Alamar Blue fluorescence, 48 h
Assay: as above
Settings: not given

Point of comparison: `O=C(NCCNC(c1ccccc1)c1ccccc1)c1ccc([N+](=O)[O-])o1`, AC50 4.66 µM. Against it:
- Cc1onc(C(=O)N2CCN(C(c3ccc(Cl)cc3)c3ccc(Cl)cc3)CC2)c1[N+](=O)[O-] — 5.5-fold lower, 0.844 µM
- CCOc1ccccc1-n1c(C(C)N2CCN(C(=O)COc3ccc(Cl)cc3)CC2)nc2ccccc2c1=O (stereo not given) — within 1.5-fold, 4.19 µM
- O=C(c1ccc([N+](=O)[O-])o1)N1CCN(C(c2ccc(F)cc2)c2ccc(F)cc2)CC1 — 3.2-fold higher, 14.8 µM
- Cc1onc(C(=O)N2CCN(C(c3ccccc3)c3ccccc3)CC2)c1[N+](=O)[O-] — 1.6-fold higher, 7.25 µM
- COc1ccc(C(c2ccc(OC)cc2)N2CCN(C(=O)c3ccc([N+](=O)[O-])o3)CC2)cc1 — within 1.5-fold, 6.87 µM
- COC(=O)c1ccc([C@@H]2c3[nH]c4ccccc4c3C[C@@H](C(=O)OC)N2C(=O)CCl)cc1 — 3-fold lower, 1.57 µM
- Cc1onc(C(=O)N2CCN(C(c3ccc(F)cc3)c3ccc(F)cc3)CC2)c1[N+](=O)[O-] — 2.2-fold lower, 2.12 µM
- Cc1onc(C(=O)N2CCN(C(c3ccccc3)c3ccc(Cl)cc3)CC2)c1[N+](=O)[O-] (stereo not given) — 2.3-fold lower, 2.04 µM

Reference: PubChem BioAssay AID540314 (Broad Institute, 2011)
